Literature values, collected in patent publication US20210346403A1, “USE OF COMPOUNDS THAT TARGET MINERALOCORTICOID RECEPTORS FOR TREATING COVID-19” (priority 2020, published 2021).

Assays:
progestin receptor = molecular target: T1, progestin receptor (Homo sapiens, UniProt P06401); settings: fold lower affinity; comparator not stated explicitly (spironolactone or MR implied)
T1 sequence (P06401 1-933): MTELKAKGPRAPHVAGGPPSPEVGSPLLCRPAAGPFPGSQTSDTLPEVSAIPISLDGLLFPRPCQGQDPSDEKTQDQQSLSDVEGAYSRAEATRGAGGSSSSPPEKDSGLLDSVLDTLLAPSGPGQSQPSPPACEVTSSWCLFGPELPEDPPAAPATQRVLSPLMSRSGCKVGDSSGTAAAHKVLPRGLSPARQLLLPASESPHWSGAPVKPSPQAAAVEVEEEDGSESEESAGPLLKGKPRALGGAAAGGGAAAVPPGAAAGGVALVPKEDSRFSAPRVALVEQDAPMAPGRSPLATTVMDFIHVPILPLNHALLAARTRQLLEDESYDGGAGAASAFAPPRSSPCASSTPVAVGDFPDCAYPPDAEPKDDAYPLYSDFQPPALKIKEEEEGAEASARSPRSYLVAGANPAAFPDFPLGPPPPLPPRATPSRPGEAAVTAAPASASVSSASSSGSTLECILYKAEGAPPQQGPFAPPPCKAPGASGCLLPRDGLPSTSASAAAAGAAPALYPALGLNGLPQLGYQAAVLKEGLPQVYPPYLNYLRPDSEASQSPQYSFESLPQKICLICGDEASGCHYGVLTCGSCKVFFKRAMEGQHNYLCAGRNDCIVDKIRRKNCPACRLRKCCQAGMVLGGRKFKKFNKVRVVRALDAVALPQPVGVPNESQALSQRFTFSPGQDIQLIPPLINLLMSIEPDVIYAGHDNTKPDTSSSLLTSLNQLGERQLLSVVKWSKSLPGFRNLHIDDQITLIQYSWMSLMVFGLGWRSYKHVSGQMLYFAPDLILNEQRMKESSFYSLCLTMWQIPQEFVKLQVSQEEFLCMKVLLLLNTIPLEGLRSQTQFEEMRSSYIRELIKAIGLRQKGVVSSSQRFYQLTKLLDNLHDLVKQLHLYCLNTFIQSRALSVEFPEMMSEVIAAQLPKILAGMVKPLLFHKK

[1] = molecular target: T2, mineralocorticoid receptor (MR) (Homo sapiens, UniProt P08235); settings: versus other steroid receptors, in words
T2 sequence (P08235 1-984): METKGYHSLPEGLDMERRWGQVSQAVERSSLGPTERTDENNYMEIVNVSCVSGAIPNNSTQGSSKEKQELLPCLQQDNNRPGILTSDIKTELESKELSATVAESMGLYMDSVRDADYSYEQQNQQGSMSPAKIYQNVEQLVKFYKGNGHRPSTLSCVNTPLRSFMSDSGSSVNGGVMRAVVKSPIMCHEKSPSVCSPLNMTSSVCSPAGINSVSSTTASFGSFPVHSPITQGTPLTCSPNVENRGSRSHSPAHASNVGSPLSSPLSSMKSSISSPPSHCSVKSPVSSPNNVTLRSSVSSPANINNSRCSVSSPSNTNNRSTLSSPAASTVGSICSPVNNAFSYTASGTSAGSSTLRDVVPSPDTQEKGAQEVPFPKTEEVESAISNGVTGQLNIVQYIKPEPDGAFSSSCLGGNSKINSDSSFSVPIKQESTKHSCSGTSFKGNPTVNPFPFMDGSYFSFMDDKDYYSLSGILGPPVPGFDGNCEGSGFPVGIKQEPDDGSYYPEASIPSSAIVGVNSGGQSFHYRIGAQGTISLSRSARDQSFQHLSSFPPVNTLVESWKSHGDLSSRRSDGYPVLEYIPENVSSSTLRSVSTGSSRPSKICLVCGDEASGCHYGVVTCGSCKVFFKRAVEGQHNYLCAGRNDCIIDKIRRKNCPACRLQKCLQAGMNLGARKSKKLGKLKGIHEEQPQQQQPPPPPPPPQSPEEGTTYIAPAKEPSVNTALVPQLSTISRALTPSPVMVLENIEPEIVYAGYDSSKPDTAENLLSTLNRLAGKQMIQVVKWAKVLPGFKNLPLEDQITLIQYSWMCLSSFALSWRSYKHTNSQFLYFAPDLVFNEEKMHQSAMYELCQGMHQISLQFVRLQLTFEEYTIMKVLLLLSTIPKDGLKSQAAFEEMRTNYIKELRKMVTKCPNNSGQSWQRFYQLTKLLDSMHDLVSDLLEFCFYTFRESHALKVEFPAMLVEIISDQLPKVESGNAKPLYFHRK

[2] = degraded by aminopeptidase A enzymes on red blood cells

COC(=O)[C@@H]1CC2=CC(=O)CC[C@]2(C)[C@@]23O[C@@H]2C[C@@]2(C)[C@@H](CC[C@@]24CCC(=O)O4)[C@H]13 [Eplerenone, eplerenone]
lower affinity for the progestin receptor (progestin receptor): 500 fold

CC(=O)S[C@@H]1CC2=CC(=O)CC[C@]2(C)[C@H]2CC[C@@]3(C)[C@@H](CC[C@@]34CCC(=O)O4)[C@H]12 [Spironolactone, spironolactone]
selectivity for the MR [1]: less selective for the MR

angiotensin-2 (DRVYIHPF; Angiotensin-2; UniProt P01019 25-32, looked up) [AngII]
half-life [2]: 30 s
